Measurements from patent US8288438B2, “Methods for avoiding edema in the treatment or prevention of PPARγ-responsive diseases, including cancer” (Metabolex, Inc., priority 2005, dated 2012).
Like-named read-outs stand apart in the source and are kept apart here.

Legend:
C57BL/6j ob/ob Mice = experiment: glucose lowering activity of halofenate analogs in C57BL/6J ob/ob mice (Example 14); type: in vivo
Description: Male, 8-9 weeks old, C57BL/6J ob/ob mice were purchased from The Jackson Laboratory (Bar Harbor, Me., USA). Animals were housed (4-5 mice/cage) under standard laboratory conditions at 22±3° C. temperature and 50±20% relative humidity, and were maintained on a diet of Purina rodent chow and water ad libitum. Prior to treatment, blood was collected from the tail vein of each animal. Mice that had non-fasting plasma glucose levels between 250 and 500 mg/dl were used. Each treatment group consisted of 8-10 mice that were distributed so that the mean glucose levels were equivalent in each group at the start of the study. Mice were dosed orally by gavage once a day for 1-3 days with either vehicle, (−) halofenic acid, (±) analog 14, 29, 33, 34, 35, 36, 37, or 38 at 125 mg/kg or (−) analog 29, 36, 37 or 38 at 150 mg/kg. compounds were delivered in a liquid formulation containing 5% (v/v) dimethyl sulfoxide (DMSO), 1% (v/v) tween 80 and 0.9% (w/v) methylcellulose. The gavage volume was 10 ml/kg. Blood samples were taken at 6 hours after the each dose and analyzed for plasma glucose. Food intake and body weight were measured daily. Plasma glucose concentrations were determined calorimetrically using glucose oxidase method (Sigma Chemical Co, St. Louis, Mo., USA). Significant difference between groups (comparing drug-treated to vehicle-treated) was evaluated using the Student unpaired t-test.

PPARγ = target: T1, PPARγ (Homo sapiens, UniProt P37231); experiment: partial agonism on PPARγ (Example 8, FIG. 6); type: cell-based
T1 sequence (P37231 1-505): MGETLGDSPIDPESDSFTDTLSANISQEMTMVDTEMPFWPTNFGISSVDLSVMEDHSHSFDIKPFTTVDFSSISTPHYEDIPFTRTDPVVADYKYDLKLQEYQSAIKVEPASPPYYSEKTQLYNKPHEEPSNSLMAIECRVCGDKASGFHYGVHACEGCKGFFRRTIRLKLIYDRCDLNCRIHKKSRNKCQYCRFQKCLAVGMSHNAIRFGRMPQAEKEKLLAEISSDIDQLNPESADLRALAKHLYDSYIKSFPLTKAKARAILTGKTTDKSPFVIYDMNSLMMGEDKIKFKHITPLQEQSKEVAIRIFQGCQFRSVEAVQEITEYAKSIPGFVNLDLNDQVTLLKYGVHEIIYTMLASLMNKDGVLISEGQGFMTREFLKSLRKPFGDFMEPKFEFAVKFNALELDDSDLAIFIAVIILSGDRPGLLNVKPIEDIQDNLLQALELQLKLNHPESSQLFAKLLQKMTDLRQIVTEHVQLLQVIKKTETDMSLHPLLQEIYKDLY
Excerpt: Expression of reporter genes in response to compounds identified as binders of PPARγ may also be used to measure PPARγ activation. PPARγ may be co-transfected with reporter genes known in the art such as, for example, luciferase, β-galactosidase, alkaline phosphatase, fluorescent green protein, or chloramphenicol acetyltransferase. The transfected cells can be exposed to appropriate concentrations of candidate compounds with rosiglitazone as a positive control. Reporter gene expression will be induced by compounds that bind and activate PPARγ. Thus, compounds that induce reporter gene expression can be identified as activators of PPARγ (Forman, et al. (1997) PNAS 94:4312). Preferably the compounds induce reporter gene expression at levels at least 5-10 fold, more preferably 10-100 fold, more preferably 100-500 fold, more preferably 500-1000 fold, most preferably greater than 1000 fold greater than the negative control.
Example 8 illustrates the partial agonism of the (−) isomer of either halofenic acid or halofenate on PPARγ (see, FIG. 6).

cytochrome P450 2C9 = cytochrome P450 2C9 (Homo sapiens, UniProt P11712); conditions: cited from earlier work
[1] = test system: type 2 diabetics with inadequate control on insulin; experiment: randomized, double-blind, placebo-controlled, multi-centre studies on type 2 diabetics with inadequate control on insulin; type: in vivo, human
Excerpt: Example 9 presents the results of two randomized, double-blind, placebo-controlled, multi-centre studies on type 2 diabetics with inadequate control on insulin. […] Both studies were about 4 months long, with a stabilization/run in period for 2 to 4 weeks and a 3 month treatment period. Endpoints included fasting plasma glucose (FPG), HbA1c, weight, and the incidence of edema.

monkeys = experiment: separate animal studies: heart weight or fluid accumulation; type: in vivo; conditions: therapeutically relevant doses, data not shown
rats = experiment: as above; type: in vivo; conditions: therapeutically relevant doses, data not shown
[2] = test system: human subjects also receiving glyburide; experiment: 14 days of treatment in human subjects also receiving glyburide (FIG. 19, 20); type: in vivo; conditions: after 14 days of treatment
Excerpt: The data for pioglitazone (Actos) is taken from Goldberg R B et al., Diabetes Care 28(7):1547-54 (2005), which is incorporated herein by reference.

[3] = 125 mg/kg oral gavage once a day
[4] = (−) analogs, single dose 150 mg/kg

Sequence of cytochrome P450 2C9 (P11712 whole entry): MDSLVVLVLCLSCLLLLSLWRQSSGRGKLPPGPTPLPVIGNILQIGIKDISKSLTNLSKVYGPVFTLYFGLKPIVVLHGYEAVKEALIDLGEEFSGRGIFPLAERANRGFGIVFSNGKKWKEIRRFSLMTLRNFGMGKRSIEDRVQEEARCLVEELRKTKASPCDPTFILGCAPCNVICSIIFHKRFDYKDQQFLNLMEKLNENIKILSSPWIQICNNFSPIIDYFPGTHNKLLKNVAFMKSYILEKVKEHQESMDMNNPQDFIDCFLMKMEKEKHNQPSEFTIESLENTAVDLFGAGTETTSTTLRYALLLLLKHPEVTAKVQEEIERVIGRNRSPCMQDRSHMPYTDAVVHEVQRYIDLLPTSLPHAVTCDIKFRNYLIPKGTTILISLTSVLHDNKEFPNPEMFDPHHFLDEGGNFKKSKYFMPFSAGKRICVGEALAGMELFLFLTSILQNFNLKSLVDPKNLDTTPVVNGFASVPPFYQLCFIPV

CC(=O)NCCOC(=O)C(Oc1cccc(C(F)(F)F)c1)c1ccc(F)cc1 (racemic) [(±)Analog 14]
plasma glucose concentrations vs vehicle (in words) (C57BL/6j ob/ob Mice; [3]): significantly lowered plasma glucose concentrations at 6, 30 and 54 hours

CC(=O)NCCOC(=O)C(Oc1cccc(C(F)(F)F)c1)c1ccc(Br)cc1 (racemic) [(±)Analog 29]
plasma glucose concentrations vs vehicle (in words) (C57BL/6j ob/ob Mice; [3]): significantly lowered plasma glucose concentrations at 6, 30 and 54 hours

CCCCOC(=O)C(Oc1cccc(C(F)(F)F)c1)c1ccc(Cl)cc1 (racemic) [(±)Analog 33]
plasma glucose concentrations vs vehicle (in words) (C57BL/6j ob/ob Mice; [3]): significantly lowered plasma glucose concentrations at 6 and 54 hours

CN(C)CCOC(=O)C(Oc1cccc(C(F)(F)F)c1)c1ccc(Cl)cc1 (racemic) [(±)Analog 35]
plasma glucose concentrations vs vehicle (in words) (C57BL/6j ob/ob Mice; [3]): significantly lowered plasma glucose concentrations at 30 and 54 hours

O=C(NCCOC(=O)C(Oc1cccc(C(F)(F)F)c1)c1ccc(Cl)cc1)c1ccccc1 (racemic) [(±)Analog 36]
plasma glucose concentrations vs vehicle (in words) (C57BL/6j ob/ob Mice; [3]): significantly lowered plasma glucose concentrations at 30 and 54 hours

NC(=O)COC(=O)C(Oc1cccc(C(F)(F)F)c1)c1ccc(Cl)cc1 (racemic) [(±)Analog 37]
plasma glucose concentrations vs vehicle (in words) (C57BL/6j ob/ob Mice; [3]): significantly lowered plasma glucose concentrations at 54 hours

CN(C)C(=O)COC(=O)C(Oc1cccc(C(F)(F)F)c1)c1ccc(Cl)cc1 (racemic) [(±)Analog 38]
plasma glucose concentrations vs vehicle (in words) (C57BL/6j ob/ob Mice; [3]): significantly lowered plasma glucose concentrations at 6, 30 and 54 hours

O=C(O)C(Oc1ccc(Cl)cc1-n1nc2ccccc2n1)c1ccccc1 (racemic) [Formula V]
kind of PPARγ agonism (PPARγ): partial PPARγ agonists

O=C(O)C(Oc1cccc(C(F)(F)F)c1)c1ccc(Cl)cc1 (racemic) [racemic halofenic acid, 4-Chlorophenyl-(3-trifluoromethylphenoxy)-acetic Acid, reference compound]
kind of PPARγ agonism (PPARγ): partial PPARγ agonists | inhibition of cytochrome P450 2C9 (cytochrome P450 2C9): found to inhibit

O=C(O)C(Oc1cccc(C(F)(F)F)c1)c1ccc(Cl)cc1 (single isomer, unassigned; (+)) [(+) enantiomer of halofenic acid, (+) 4-chlorophenyl-(3-trifluoromethylphenoxy)-acetic acid]
inhibition of cytochrome P450 2C9 (cytochrome P450 2C9): quite potent

CC(=O)NCCOC(=O)C(Oc1cccc(C(F)(F)F)c1)c1ccc(Cl)cc1 (single isomer, unassigned; (-)) [(−) halofenate, (−) 2-acetamidoethyl 4-chlorophenyl-(3-trifluoromethylphenoxy)acetate]
plasma glucose levels as judged by HbA1c levels compared to placebo group ([1]; 600 mg, analysis removing sites 60 and 70, FIG. 13): lowered | fasting plasma glucose levels compared to placebo group ([1]; 600 mg, sites 60 and 70 removed, FIG. 14, even greater extent than the 400 mg dose): lowered | plasma glucose levels as judged by HbA1c levels compared to placebo group ([1]; 200- and 400 mg, sites 60 and 70 removed, FIG. 15): lowered | fasting plasma glucose levels compared to placebo group ([1]; 200- and 400 mg, sites 60 and 70 removed, FIG. 16): lowered | anti-edema activity ([1]; Phase II clinical trial): had anti-edema activity of its own | side effects: hepatoxicity, edema, heart failure, increased weight gain ([1]; Phase II clinical trial): largely free | adverse effects on selected parameters of upper GI tract, liver, blood, kidney ([1]; data not shown): not associated with an excess of adverse effects | effect on the HDL/cholesterol profile ([1]; data not shown): neutral effect | serum triglycerides ([1]; data not shown): lowered serum triglycerides substantially | weight gain compared to placebo group ([1]; dose of 600 mg, FIG. 18): did not induce weight gain | incidence of edema formation compared to combined placebo groups ([1]; dose range of 200- to 600 mg, both studies, FIG. 17): did not increase the incidence of edema formation | edema formation compared to placebo groups ([1]; doses of 200- and 400 mg, FIG. 9): prevented edema formation | weight gain compared to placebo group ([1]; doses of 200- and 400 mg, FIG. 10): did not induce weight gain | Discontinued due to AE, patients (%) ([1]; first study, 200 mg group): 3 (4.1%) | Discontinued due to AE, patients (%) ([1]; first study, 400 mg group): 3 (4.3%) | fasting plasma glucose levels compared to placebo group ([1]; first study, doses of 200- and 400 mg, FIG. 7): lowered | plasma glucose levels as judged by HbA1c levels compared to placebo group ([1]; first study, doses of 200- and 400 mg, FIG. 8): lowered | Discontinued due to AE, patients (%) ([1]; second study, 600 mg group): 0 (0%) | plasma glucose levels as judged by HbA1c levels, from baseline ([1]; second study, 600 mg, FIG. 12, placebo group demonstrated a comparable response): lowered | fasting plasma glucose levels compared to placebo group ([1]; second study, dose of 600 mg, FIG. 11): lowered | increases in heart weight or fluid accumulation (monkeys): did not cause increases | kind of PPARγ agonism (PPARγ): partial agonist | antagonizing the agonist activity of rosiglitazone (PPARγ; FIG. 6): significantly antagonizing | increases in heart weight or fluid accumulation (rats): did not cause increases | blood glucose levels in patients also receiving glyburide ([2]; FIG. 19): substantially lower | hsCRP levels ([2]; FIG. 20): lower

CC(=O)NCCOC(=O)C(Oc1cccc(C(F)(F)F)c1)c1ccc(Br)cc1 (single isomer, unassigned; (-)) [(−)Analog 29]
plasma glucose concentrations vs vehicle (in words) (C57BL/6j ob/ob Mice; [4]): significantly reduced plasma glucose concentrations at 6 hours

O=C(NCCOC(=O)C(Oc1cccc(C(F)(F)F)c1)c1ccc(Cl)cc1)c1ccccc1 (single isomer, unassigned; (-)) [(−)Analog 36]
plasma glucose concentrations vs vehicle (in words) (C57BL/6j ob/ob Mice; [4]): significantly reduced plasma glucose concentrations at 6 hours

NC(=O)COC(=O)C(Oc1cccc(C(F)(F)F)c1)c1ccc(Cl)cc1 (single isomer, unassigned; (-)) [(−)Analog 37]
plasma glucose concentrations vs vehicle (in words) (C57BL/6j ob/ob Mice; [4]): significantly reduced plasma glucose concentrations at 6 hours

CN(C)C(=O)COC(=O)C(Oc1cccc(C(F)(F)F)c1)c1ccc(Cl)cc1 (single isomer, unassigned; (-)) [(−)Analog 38]
plasma glucose concentrations vs vehicle (in words) (C57BL/6j ob/ob Mice; [4]): significantly reduced plasma glucose concentrations at 6 hours

O=C(O)C(Oc1cccc(C(F)(F)F)c1)c1ccc(Cl)cc1 (single isomer, unassigned; (-)) [(−)halofenic acid, (−) (3-trifluoromethylphenoxy) (4-chlorophenyl)acetic acid]
plasma glucose concentrations vs vehicle (in words) (C57BL/6j ob/ob Mice; [3]): significantly reduced plasma glucose concentrations at 6 hours | kind of PPARγ agonism (PPARγ): partial agonist | ability to induce PPARγ expression (PPARγ; FIG. 6): a few fold | antagonizing the agonist activity of rosiglitazone (PPARγ; FIG. 6): significantly antagonizing | inhibition of cytochrome P450 2C9 (cytochrome P450 2C9; listed as (−) enantiomer of halofenic acid): about twenty-fold less active
